From BindingDB's records for doi:10.7270/Q2X065GM (Sanford-Burnham Center for Chemical Genomics, 2008)

Target: T1, Bcl-2-related protein A1 (Mus musculus, UniProt Q07440)
T1 sequence (Q07440 whole entry): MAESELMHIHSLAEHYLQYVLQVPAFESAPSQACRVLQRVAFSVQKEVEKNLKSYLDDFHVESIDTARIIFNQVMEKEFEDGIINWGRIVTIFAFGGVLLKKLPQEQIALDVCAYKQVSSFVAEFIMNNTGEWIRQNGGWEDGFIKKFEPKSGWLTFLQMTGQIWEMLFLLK
Test: Bfl-1 binding inhibitors, SAR follow-up, biochemical, fluorescence polarization (AID 1070)

IC50 [µM] | SMILES
1.7 | Cc1ccc(N=C2C(=O)N(c3ccc(C)cc3)C(=O)C2Cl)cc1 (configuration not stated) [3-chloranyl-1-(4-methylphenyl)-4-[(4-methylphenyl)amino]pyrrole-2,5-dione]
12.6 | COCC=Nc1c(Cl)c(O)n(-c2ccc(Cl)c(Cl)c2)c1O [3-chloranyl-1-(3,4-dichlorophenyl)-4-(2-methoxyethylamino)pyrrole-2,5-dione]
